Reference: patent publication US20020155088A1, “Tumor treatment by using oligoaniline” (priority 2001, published 2002)

Assays:
[1] = system: Fibrosarcoma cells (CCRC60037) and sarcoma 180 cells; assay: In vitro irradiation-induced cytotoxicity based on tumor cell viability (MTT/formazon)
Method: An in vitro inhibition assay can be performed to preliminarily evaluate an oligoaniline's ability to inhibit the growth of tumor cells. For example, an oligoaniline solution is added to a pre-incubated cell suspension. Subsequently, the cell suspension is irradiated with fluorescence light, followed by further incubation. A 3-(4,5-dimethylthiazol-2-yl)-2,5-diphenyl-tetrazolium bromide solution is then added to the cell suspension to react with mitochrondrial dehydrogenase to form formazon, which is extracted with dimethyl sulfoxide (DMSO). The DMSO extract solution is immediately used for optical measurement to determine the formazon quantity, which correlates with the quantity of dehydrogenase or the relative number of the living cells.
Two types of tumor cells used in this study were prepared as follows: Fibrosarcoma cells (CCRC60037) and sarcoma 180 cells (obtained form Biochemical Institute of Chung Shan Medical and Dental College, Taiwan) were maintained and cultured in an cc-modified eagle medium (MEM) containing L-glutamine and phenol red, 10% fetal bovine serum, and antibiotics (100 units/mL of penicillin G and 100 μg/mL streptomycin sulfate). The cells were incubated in the dark in 95% humidified air plus 5% CO2, harvested by treatment with trypsin-EDTA, and then suspended in an α-MEM at the concentration of 1×10^4 cells/mL.
The cell suspension thus obtained was placed in wells of a 24-well plate (500 μL each) and pre-incubated at 37° C. for 24 hours. A16S solutions of various concentrations (0-10 μM) were then added to the wells (500 μL each). The wells were irradiated with fluorescence light (27 watts) for 0-60 minutes. The distance between the plate cover and the light source was 5-6 cm. After irradiation, the cells were further incubated for 48 hours. A solution of 3-(4,5-dimethylthiazol-2-yl)-2,5-diphenyl-tetrazolium bromide (0.5% in PBS; 100 μL each) was then added to each cell suspension, thereby causing the cells to produce formazon. After incubation at 37° C. for 3 hours, the suspension medium was discarded. Formazon formed in the cells from each well was extracted with DMSO (1.0 mL), and the DMSO extract solution was immediately measured for absorbance at […]. The absorbance directly correlated with the quantity of formazon, and thus with the quantity of dehydrogenase enzyme or the relative number of the living cells (i.e., viability). […] A maximal photodynamic cytotoxicity efficacy of >90% was obtained at an A16S concentration of 5.0-10.0 μM and an irradiation time of 60 minutes.

ferricytochrome C = assay: In vitro irradiation-induced superoxide generation (ferricytochrome C reduction); format: biochemical; settings: 25 μM A16S aqueous solution, fluorescence light 27 watts, irradiation time 0, 30, 60, 90 minutes
Method: The mixture thus obtained was added into wells of a 24-well plate, and exposed to fluorescence light source (27 watts) for 0-90 minutes. The distance between the plate cover and the light source was 5-6 cm. The reduction extent of ferricytochrome C was evaluated based on its absorbance at 550 nm, which corresponded to the increase of the quantity of reduced ferrocytochrome C.

[2] = system: Murine sarcoma 180 cells (subcutaneous tumors); assay: In vivo photodynamic therapy study in tumor-bearing mice; design: species or system male ICR mice; settings: 10 mg/kg intraperitoneal
From the text: Oligoanilines that show efficacy in preliminary studies can be further tested to confirm their efficacy by an in vivo assay on tumor-bearing mice. For example, see Chiang, et al. Proc. Electrochem. Soc., 1999, 99-12, 238-249. More specifically, a tumor-bearing mouse can be first administered with an oligoaniline to be tested in PBS close to the tumor site. The mouse is then kept in the dark while the oligoaniline is circulated to the tumor site. The tumor site is exposed by removing the hair on and around it, and then irradiated with a laser beam or other light source. After the irradiation, the growth of the tumor in the mouse is examined at different time intervals. The inhibitory effect can be evaluated by measuring the body weights of the mouse and the volumes of the tumor. After the mouse is sacrificed, the final body weight, the weights of various organs, and the final volume and weight of the tumor are measured; and blood is collected for biochemistry and hematology analyses. The data are evaluated used to determine the photodynamic therapeutic and other effects. […]
The mice in groups (1) and (2) were subsequently kept in the dark for 24 hours, and then anesthetized with avertine (0.3 mL/head). […] After the irradiation, the body weights and tumor volumes of the mice were measured every 5 days for 30 days. […]

Sulfobutylated Hexadecaaniline [A16S] was tested, and the cell viability ([1]; A16S 0-10 μM, fluorescence light 27 watts, irradiation 0-60 minutes, 48 hours further incubation) was “decreased as the A16S dosage and irradiation time increased”, the “maximal photodynamic cytotoxicity efficacy” value ([1]; A16S 5.0-10.0 μM, irradiation time 60 minutes) was over 90% and the IC50 ([1]; irradiation time 60 minutes) was 1 µM. The viable cells ([1]; irradiation time 60 minutes, A16S concentration increased from 0 to 2.5 μM) was “a sharp loss of viable cells was observed”, the “cytotoxicity in the absence of light irradiation” value ([1]; no irradiation, highest A16S concentration 10.0 μM) was “no cytotoxicity was observed” and the “amount of superoxide free radicals (ferrocytochrome C absorbance at 550 nm)” value (ferricytochrome C) was “increased as the irradiation time increased”. For the same substance, the “average tumor weight relative to tumor control group” value ([2]; laser 633 nm 100 J/cm^2, day 30) was “about 40%” and the “tumor growth rates versus tumor control group” value ([2]; laser 633 nm 100 J/cm^2, entire 30 day study period) was “much lower”.
